{
  "source": "paper PMC8596301",
  "about": "(Frontiers in Pharmacology, 2021)",
  "key": {"[1]": {"set-up": "method as in Kamble et al., 2021", "conditions": "rats; oral; 1.1 mg∙kg^−1; ref Kamble et al., 2021; cited from earlier work"}, "[2]": {"target": "μOR (Homo sapiens, UniProt P35372)", "sequence (P35372 whole entry)": "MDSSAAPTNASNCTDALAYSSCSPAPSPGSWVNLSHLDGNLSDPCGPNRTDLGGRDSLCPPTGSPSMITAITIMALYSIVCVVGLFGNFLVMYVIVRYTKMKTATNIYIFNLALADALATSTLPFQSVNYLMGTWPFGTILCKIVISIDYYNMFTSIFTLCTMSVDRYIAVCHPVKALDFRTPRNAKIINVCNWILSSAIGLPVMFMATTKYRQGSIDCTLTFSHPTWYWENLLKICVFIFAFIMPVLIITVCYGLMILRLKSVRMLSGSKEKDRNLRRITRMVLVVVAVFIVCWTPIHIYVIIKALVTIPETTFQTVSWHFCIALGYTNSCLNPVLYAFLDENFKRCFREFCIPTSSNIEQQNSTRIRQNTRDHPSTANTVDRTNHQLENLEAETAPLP", "assay": "biochemical", "type": "binding"}, "[3]": {"target": "κOR (Homo sapiens, UniProt P41145)", "sequence (P41145 whole entry)": "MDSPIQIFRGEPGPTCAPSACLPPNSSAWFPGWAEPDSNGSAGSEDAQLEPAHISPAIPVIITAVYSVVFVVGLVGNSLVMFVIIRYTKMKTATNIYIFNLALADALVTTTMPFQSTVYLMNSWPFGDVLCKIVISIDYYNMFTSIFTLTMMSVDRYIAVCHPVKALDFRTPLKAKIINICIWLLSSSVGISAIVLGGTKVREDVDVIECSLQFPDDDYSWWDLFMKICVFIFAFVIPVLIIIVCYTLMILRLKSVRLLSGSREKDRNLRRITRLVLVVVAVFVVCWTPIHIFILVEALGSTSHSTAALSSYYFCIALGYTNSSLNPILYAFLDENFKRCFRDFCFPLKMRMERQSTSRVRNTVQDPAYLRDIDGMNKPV", "assay": "biochemical", "type": "binding"}, "[4]": {"test_system": "wild-type C57Bl/6 mice", "conditions": "10 and 30 mg∙kg^−1; male mice; ref Gutridge et al., 2020; cited from earlier work"}, "[5]": {"test_system": "C57Bl/6 male mice", "assay": "Tail flick thermal nociception assay", "type": "in vivo, mouse"}, "[6]": {"test_system": "human ORs", "set-up": "method as in Kruegel et al., 2016", "conditions": "ref Kruegel et al., 2016; cited from earlier work"}, "[7]": {"target": "T1, FLAG-mouse δOR (Mus musculus, UniProt P32300)", "T1 construct": "expressed in transfected cells; host or cells: HEK cells (HEK-293), transient, co-transfected with pGloSensor22F", "T1 sequence (P32300 whole entry)": "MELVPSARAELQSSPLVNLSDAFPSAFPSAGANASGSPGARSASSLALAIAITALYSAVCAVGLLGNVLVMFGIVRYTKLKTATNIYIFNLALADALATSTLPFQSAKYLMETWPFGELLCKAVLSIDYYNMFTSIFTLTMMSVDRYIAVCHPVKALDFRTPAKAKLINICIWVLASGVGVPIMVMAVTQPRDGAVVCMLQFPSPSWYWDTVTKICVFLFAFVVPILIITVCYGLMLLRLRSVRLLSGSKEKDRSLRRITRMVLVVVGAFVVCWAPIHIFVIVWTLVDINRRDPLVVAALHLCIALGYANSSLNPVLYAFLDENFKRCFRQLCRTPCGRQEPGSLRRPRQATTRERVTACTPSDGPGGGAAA", "set-up": "method as in Gutridge et al., 2020", "conditions": "cited from earlier work"}, "[8]": {"test_system": "C57Bl/6 male mice", "assay": "Locomotor evaluation (ambulation)"}, "[9]": {"test_system": "δOR KO mice", "assay": "Two-bottle choice alcohol paradigm (drinking in the dark, 10% ethanol vs. water)", "type": "in vivo, mouse", "conditions": "for Ethanol consumption: δOR KO male mice", "description": "(§1) Mice were subject to drinking in the dark (DID), limited access (4 h per day), two-bottle choice (10% ethanol vs. water) paradigm in which they were trained to consume alcohol voluntarily as previously described ([Rhodes et al., 2005]; [van Rijn and Whistler, 2009]). Mice reached stable alcohol consumption within 3 weeks of training, and after the third week, drug injections were administered prior to the daily drinking session on Friday. Drug’s effect on alcohol consumption was measured as the change in Friday’s alcohol intake minus the average alcohol intake from the preceding Tuesday–Thursday of that week (g∙kg^−1). A summary of all statistical analyses for the drinking data can be found in Supplemental Tables S6–S9. In brief, results from two-bottle choice alcohol consumption paradigms were assessed for statistical significance using RM two-way ANOVA for main effects of drug dose, treatment day, and drug dose × treatment day; Sidak’s multiple comparisons (MC) between alcohol consumption baseline (Tuesday–Thursday average) vs. treatment day consumption (Friday) were then used as the post hoc test for each drug dose tested. The same RM two-way ANOVA and Sidak’s MC post hoc analyses were used for water consumption and ethanol preference data. […] Sex differences between baseline data were evaluated using RM two-way ANOVA for main effects of sex, treatment baseline, and sex × treatment baseline; Sidak’s multiple comparisons (MC) between male and female mice were then used as the post hoc test for each treatment week tested."}, "[10]": {"test_system": "C57Bl/6 male mice", "conditions": "ref Gutridge et al., 2020; cited from earlier work"}, "[11]": {"target": "T2, HA-mouse µOR (Mus musculus, UniProt P42866)", "T2 construct": "expressed in transfected cells; host or cells: HEK cells (HEK-293), transient, co-transfected with pGloSensor22F", "T2 sequence (P42866 whole entry)": "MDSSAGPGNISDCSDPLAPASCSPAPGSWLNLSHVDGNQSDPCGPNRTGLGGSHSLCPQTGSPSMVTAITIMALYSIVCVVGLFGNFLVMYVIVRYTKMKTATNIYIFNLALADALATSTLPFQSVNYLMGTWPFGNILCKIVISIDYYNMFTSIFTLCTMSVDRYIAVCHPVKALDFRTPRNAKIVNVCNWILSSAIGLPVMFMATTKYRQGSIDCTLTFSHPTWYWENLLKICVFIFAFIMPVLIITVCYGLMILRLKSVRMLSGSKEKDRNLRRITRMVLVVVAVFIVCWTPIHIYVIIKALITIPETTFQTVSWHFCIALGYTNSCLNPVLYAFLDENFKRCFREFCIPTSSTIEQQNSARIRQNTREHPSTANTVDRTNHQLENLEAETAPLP", "conditions": "cited from earlier work"}, "[12]": {"target": "T3, FLAG-mouse κOR (Mus musculus, UniProt P33534)", "T3 construct": "expressed in transfected cells; host or cells: HEK cells (HEK-293), transient, co-transfected with pGloSensor22F", "T3 sequence (P33534 whole entry)": "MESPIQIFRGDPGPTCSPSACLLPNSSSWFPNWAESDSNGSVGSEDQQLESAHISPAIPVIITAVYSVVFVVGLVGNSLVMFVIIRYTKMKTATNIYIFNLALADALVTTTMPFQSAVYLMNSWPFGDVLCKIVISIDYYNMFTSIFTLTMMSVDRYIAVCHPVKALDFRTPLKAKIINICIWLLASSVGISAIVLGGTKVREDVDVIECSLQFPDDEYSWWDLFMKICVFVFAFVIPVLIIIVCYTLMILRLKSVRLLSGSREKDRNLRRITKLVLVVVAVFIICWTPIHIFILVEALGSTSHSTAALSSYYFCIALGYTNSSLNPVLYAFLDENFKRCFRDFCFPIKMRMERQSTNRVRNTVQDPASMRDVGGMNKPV", "set-up": "method as in Gutridge et al., 2020", "conditions": "cited from earlier work"}, "[13]": {"test_system": "C57Bl/6 male mice", "assay": "Brief and extended conditioned place preference paradigms", "type": "in vivo, mouse", "text": "Mice were conditioned to drugs and vehicle as described previously in two-chamber conditioned place preference (CPP) boxes in a counterbalanced, unbiased approach for either two drug conditioning sessions over 2 days (brief) or four drug conditioning sessions over 8 days (extended) ([Váradi et al., 2015]; [Gutridge et al., 2020]). For brief and extended conditioned place preference experiments, separate groups of mice were used for each drug dose. A summary of all statistical analyses for the CPP data can be found in Supplemental Table S4. In brief, all CPP data were analyzed with two-tailed, paired t tests comparing time spent on the drug-paired side pre- and post-conditioning."}, "[14]": {"test_system": "WT and δOR KO mice", "assay": "Seizure assay (modified Racine scale)", "type": "in vivo, mouse", "description": "To assess drug-induced seizurogenic activity, mice were placed in a clear plastic cylinder (25 cm diameter, 35 cm height) immediately following drug injection and their activity was recorded in a well-lit, quiet room using iSpy camera software (iSpyConnect.com). A recording time of 90 min was chosen for the tested compounds based on previous observations of seizures time lengths in experiments with 30 mg∙kg^−1 paynantheine. If animals were not presenting with seizure activity after 30 min, the recording time was shortened accordingly. Seizure severity was scored based on the modified Racine scale (half-scores allowed) in bins of 3–5 min. Onset to first seizure symptom, onset to highest Racine score, and highest Racine score were also assessed. A summary of all statistical analyses for the seizure data can be found in Supplemental Table S3. In brief, seizure-like behavior between wild type and δOR KO mice was compared with a two-tailed, unpaired t test with Welch’s correction on area under the curve data generated from graphing the highest Racine score per time bin over 90 min for each mouse."}, "[15]": {"target": "T2, HA-mouse µOR", "assay": "cell-based"}, "[16]": {"target": "T1, FLAG-mouse δOR", "assay": "cell-based"}, "[17]": {"target": "δOR (Homo sapiens, UniProt P41143)", "sequence (P41143 whole entry)": "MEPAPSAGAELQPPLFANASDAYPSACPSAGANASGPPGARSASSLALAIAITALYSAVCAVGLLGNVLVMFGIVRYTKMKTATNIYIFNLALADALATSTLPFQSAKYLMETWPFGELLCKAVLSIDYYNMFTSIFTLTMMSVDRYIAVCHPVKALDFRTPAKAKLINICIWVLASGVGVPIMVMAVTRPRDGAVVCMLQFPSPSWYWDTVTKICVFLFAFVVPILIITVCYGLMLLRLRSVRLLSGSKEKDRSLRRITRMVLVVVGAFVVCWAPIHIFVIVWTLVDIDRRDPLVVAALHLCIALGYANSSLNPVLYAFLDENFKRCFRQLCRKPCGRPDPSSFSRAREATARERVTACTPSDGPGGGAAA", "assay": "biochemical", "type": "binding"}, "[18]": {"assay": "Maximum tolerated dose (side effect profile)", "conditions": "C57Bl/6, mouse, in vivo, sc, 10 mg∙kg^−1"}, "[19]": {"test_system": "wild-type C57Bl/6 mice", "assay": "Two-bottle choice alcohol paradigm (drinking in the dark, 10% ethanol vs. water)", "type": "in vivo, mouse", "description": "as §1"}, "[20]": {"target": "T3, FLAG-mouse κOR", "assay": "cell-based"}, "[21]": {"conditions": "ref Gutridge et al., 2020, read-out: cAMP IC50"}, "[22]": {"conditions": "HEK293, read-out: cAMP α (% inhibition at maximal efficacy)"}, "[23]": {"conditions": "10 mg∙kg^−1 s.c., WT male and female mice"}, "[24]": {"conditions": "7-hydroxyspeciogynine 10 mg∙kg^−1 s.c., WT male mice"}},
  "note": "Like-named read-outs stand apart in the source and are kept apart here.",
  "data": [
    {"smiles": "C=C[C@H]1CN2CCc3c([nH]c4cccc(OC)c34)[C@@H]2C[C@@H]1/C(=C\\OC)C(=O)OC", "note": "[PAYN, paynantheine]", "values": [
      {"measurement": "Detectability in plasma over time", "setting": "[1]", "value": "undetectable after an hour"},
      {"measurement": "Tmax in plasma", "setting": "[1]", "value": 10, "unit": "min"},
      {"measurement": "Ki", "setting": "[2]", "value": 0.52, "unit": "µM"},
      {"measurement": "Ki", "setting": "[3]; Binding Ki (µM)", "value": 4, "unit": "µM"},
      {"measurement": "Ki", "setting": "[3]; Binding pKi", "value": 3.16, "unit": "µM"},
      {"measurement": "Alcohol intake", "setting": "[4]", "value": "dose-dependently decreases alcohol intake"},
      {"measurement": "Block of morphine analgesia", "setting": "[5]; 10 mg∙kg^−1 i.p., morphine 6 mg∙kg^−1 s.c.", "value": "does not block morphine analgesia"},
      {"measurement": "Block of morphine analgesia", "setting": "[5]; 30 mg∙kg^−1 i.p., morphine 6 mg∙kg^−1 s.c.", "value": "blocks morphine analgesia"},
      {"measurement": "Block of antinociception produced by 6 mg∙kg^−1 morphine", "setting": "[5]; 10 and 30 mg∙kg^−1 i.p., 10 min before morphine s.c.", "value": "dose-dependently blocked antinociception"},
      {"measurement": "Antinociceptive effect (agonist mode, %MPE)", "setting": "[5]; 10 and 30 mg∙kg^−1 i.p., 30 min", "value": "neither the 10 nor 30 mg∙kg^−1 dose displayed meaningful antinociceptive effects"},
      {"measurement": "Functional activity at human ORs", "setting": "[6]", "value": "weak antagonist"},
      {"measurement": "cAMP α", "setting": "[7]; normalized to Leu-enkephalin, ref Gutridge et al., 2020", "value": "64 ± 13"},
      {"measurement": "IC50", "setting": "[7]; [21]", "value": 3.55, "unit": "µM"},
      {"measurement": "cAMP pIC50", "setting": "[7]; ref Gutridge et al., 2020", "value": "5.6 ± 0.2"},
      {"measurement": "Effect on hyperlocomotion induced by 6 mg∙kg^−1 morphine", "setting": "[8]; 10 and 30 mg∙kg^−1 i.p., data from CPP conditioning sessions", "value": "dose-dependently attenuated hyperlocomotion"},
      {"measurement": "Alcohol consumption", "setting": "[9]; paynantheine 10 mg∙kg^−1, male δOR KO mice", "value": "decreases alcohol consumption in δOR KO mice"},
      {"measurement": "Hyperlocomotion at effective dose", "setting": "[10]", "value": "does not produce hyperlocomotion"},
      {"measurement": "cAMP pIC50", "setting": "[11]", "value": "5.4 ± 0.1"},
      {"measurement": "cAMP α", "setting": "[11]", "value": "100 ± 0"},
      {"measurement": "IC50", "setting": "[11]; read-out: cAMP IC50", "value": 4.08, "unit": "µM"},
      {"measurement": "cAMP α", "setting": "[12]; normalized to U50,488, ref Gutridge et al., 2020", "value": "95 ± 5"},
      {"measurement": "IC50", "setting": "[12]; [21]", "value": 7.43, "unit": "µM"},
      {"measurement": "Conditioned place preference, extended CPP paradigm", "setting": "[13]; 10 mg∙kg^−1 i.p., four drug conditioning sessions, male mice", "value": "did not produce CPP nor CPA"},
      {"measurement": "Conditioned place preference, brief CPP paradigm", "setting": "[13]; 10 mg∙kg^−1 i.p., two drug conditioning sessions, male mice", "value": "modest conditioned place aversion"},
      {"measurement": "Block of morphine CPP", "setting": "[13]; 10 and 30 mg∙kg^−1 i.p. pretreatment, morphine 6 mg∙kg^−1, brief CPP", "value": "neither dose blocks morphine CPP"},
      {"measurement": "Convulsive behaviors, Racine level", "setting": "[14]; 30 mg∙kg^−1 i.p., wild type and δOR KO mice", "value": "1–2"}
    ]},
    {"smiles": "CC[C@H]1CN2CC[C@@]3(O)C(=Nc4cccc(OC)c43)[C@@H]2C[C@@H]1/C(=C\\OC)C(=O)OC", "note": "[7OH SPG, 7-Hydroxyspeciogynine]", "values": [
      {"measurement": "IC50", "setting": "[15]", "value": 0.61, "unit": "µM"},
      {"measurement": "Emax", "setting": "[15]; [22]", "value": "66 ± 6", "unit": "%"},
      {"measurement": "IC50", "setting": "[16]", "value": 2.27, "unit": "µM"},
      {"measurement": "Emax", "setting": "[16]; [22]", "value": "76 ± 6", "unit": "%"},
      {"measurement": "Ki", "setting": "[17]", "value": 0.46, "unit": "µM"},
      {"measurement": "Ki", "setting": "[3]; Binding Ki (µM)", "value": 1.63, "unit": "µM"},
      {"measurement": "Block of morphine analgesia", "setting": "[5]; 10 mg∙kg^−1 s.c., then morphine 6 mg∙kg^−1 s.c. 10 min later", "value": "did not produce antinociception (paired, two-tailed t test, t = 0.6193, df = 9, p = 0.5511) or block morphine analgesia"},
      {"measurement": "Antinociception (agonist mode)", "setting": "[5]; 10 mg∙kg^−1 s.c., male mice", "value": "did not produce antinociception"},
      {"measurement": "MTD at 10 days", "setting": "[18]", "value": "≥ 10", "unit": "mg/kg"},
      {"measurement": "Ambulation", "setting": "[8]; 10 mg∙kg^−1 s.c., data from CPP experiment", "value": "did not significantly alter ambulation"},
      {"measurement": "Ethanol consumption", "setting": "[9]; 7-hydroxyspeciogynine 3 mg∙kg^−1 s.c.", "value": "lack of effect"},
      {"measurement": "Ethanol consumption", "setting": "[9]; 7-hydroxyspeciogynine 10 mg∙kg^−1 s.c.", "value": "significantly decreased ethanol consumption"},
      {"measurement": "Ethanol consumption, water consumption, ethanol preference", "setting": "[19]; 3 mg∙kg^−1 s.c., WT female mice", "value": "did not significantly modulate ethanol consumption, water consumption, or ethanol preference"},
      {"measurement": "Δ ethanol intake, males and females pooled", "setting": "[19]; 3 mg∙kg^−1 s.c., WT male and female mice", "value": "significant ethanol modulation effect"},
      {"measurement": "Δ ethanol preference, males and females pooled", "setting": "[19]; [23]", "value": "significant decrease in ethanol preference"},
      {"measurement": "Δ water consumption, males and females pooled", "setting": "[19]; [23]", "value": "concomitant increase in water consumption was evident"},
      {"measurement": "Decrease in ethanol consumption", "setting": "[19]; 10 mg∙kg^−1 s.c., WT mice", "value": "1.2 ± 0.2", "unit": "g/kg"},
      {"measurement": "Reduction in ethanol consumption", "setting": "[19]; 10 mg∙kg^−1 s.c., WT mice", "value": "40 ± 7", "unit": "%"},
      {"measurement": "Ethanol preference", "setting": "[19]; [24]", "value": "corresponding decrease in ethanol preference"},
      {"measurement": "Water consumption", "setting": "[19]; [24]", "value": "concomitant increase in water consumption"},
      {"measurement": "Alcohol intake", "setting": "[19]; 7-hydroxyspeciogynine 3 and 10 mg∙kg^−1 s.c., wild-type male mice", "value": "reduced alcohol intake in a dose-dependent manner"},
      {"measurement": "IC50", "setting": "[20]", "value": 7.71, "unit": "µM"},
      {"measurement": "Emax", "setting": "[20]; [22]", "value": "80 ± 20", "unit": "%"},
      {"measurement": "Conditioned place preference, extended protocol", "setting": "[13]; 10 mg∙kg^−1 s.c., four conditioning sessions, male WT mice", "value": "did not develop conditioned place preference"},
      {"measurement": "Seizures", "setting": "[14]; 10 mg∙kg^−1 s.c., 30 min", "value": "nor induce noticeable seizures"}
    ]}
  ]
}
